Laboratory results published in patent publication US4992418A, “Superactive human insulin analogue-[10-Aspartic Acid-B]Human Insulin” (Mount Sinai School of Medicine, priority 1987, dated 1991).

How the values were obtained:
insulin receptors = insulin receptors (Rattus norvegicus, UniProt P15127); assay: Standard in vitro assays measuring relative insulin potency (summary statements); conditions: in vitro experiments of the Examples
[1] = tested on: Guinea pig antiserum to porcine insulin; conditions: relative to bovine or porcine insulin
Experimental: Guinea pig antiserum to porcine insulin and goat anti-guinea pig-γ globulin were used at a 1:25 dilution in assay buffer (sodium phosphate, 0.04M, pH 7.6, containing 0.154M NaCl, 0.1% gelatin, and 0.01% thimerosal). […] After incubation at room temperature overnight, 0.2 ml of the precipitating antibody (goat anti-guinea pig-γ globulin) was added, and the tubes were further incubated overnight at room temperature. Immune precipitates were collected on cellulose-acetate filters and washed with two successive 1.0 mL portions of ice-cold assay buffer. Filters were dried and radioactivity was counted in a scintillation counter in Filtron-X®. Straight-line plots of Co /Ci were constructed by linear regression analysis as described by Hales et al., Biochem. J. (1963), vol.

[2] = target: T1, insulin receptors in rat liver plasma membranes (Rattus norvegicus, UniProt P15127); assay: Insulin receptor binding assay (125I-insulin displacement, rat liver plasma membranes)
T1 construct: Rat liver plasma membranes were prepared as described by Horvat et al; from tissue; host or cells: rat liver plasma membranes
T1 sequence (P15127 27-759 limits assumed): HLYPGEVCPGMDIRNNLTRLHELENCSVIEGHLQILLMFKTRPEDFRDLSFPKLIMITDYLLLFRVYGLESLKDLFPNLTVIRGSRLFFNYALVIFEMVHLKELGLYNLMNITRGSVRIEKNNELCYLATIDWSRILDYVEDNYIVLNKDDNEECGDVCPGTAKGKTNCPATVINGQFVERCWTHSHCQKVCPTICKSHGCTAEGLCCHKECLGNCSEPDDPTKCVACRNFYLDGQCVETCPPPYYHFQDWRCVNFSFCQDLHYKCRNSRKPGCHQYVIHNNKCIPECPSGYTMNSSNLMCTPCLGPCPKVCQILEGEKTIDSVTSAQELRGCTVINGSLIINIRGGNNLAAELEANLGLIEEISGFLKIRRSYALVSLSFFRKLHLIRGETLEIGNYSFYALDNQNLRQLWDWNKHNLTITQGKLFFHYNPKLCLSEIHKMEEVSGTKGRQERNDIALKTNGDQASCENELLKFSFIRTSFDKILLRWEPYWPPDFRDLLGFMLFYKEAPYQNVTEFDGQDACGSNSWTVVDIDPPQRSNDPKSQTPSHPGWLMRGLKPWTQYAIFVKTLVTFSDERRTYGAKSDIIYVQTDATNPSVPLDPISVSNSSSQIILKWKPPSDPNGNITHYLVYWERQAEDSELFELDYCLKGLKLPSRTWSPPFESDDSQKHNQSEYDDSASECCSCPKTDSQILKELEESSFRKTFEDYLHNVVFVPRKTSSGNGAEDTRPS
T1 sequence (P15127 764-1383 partner limits assumed): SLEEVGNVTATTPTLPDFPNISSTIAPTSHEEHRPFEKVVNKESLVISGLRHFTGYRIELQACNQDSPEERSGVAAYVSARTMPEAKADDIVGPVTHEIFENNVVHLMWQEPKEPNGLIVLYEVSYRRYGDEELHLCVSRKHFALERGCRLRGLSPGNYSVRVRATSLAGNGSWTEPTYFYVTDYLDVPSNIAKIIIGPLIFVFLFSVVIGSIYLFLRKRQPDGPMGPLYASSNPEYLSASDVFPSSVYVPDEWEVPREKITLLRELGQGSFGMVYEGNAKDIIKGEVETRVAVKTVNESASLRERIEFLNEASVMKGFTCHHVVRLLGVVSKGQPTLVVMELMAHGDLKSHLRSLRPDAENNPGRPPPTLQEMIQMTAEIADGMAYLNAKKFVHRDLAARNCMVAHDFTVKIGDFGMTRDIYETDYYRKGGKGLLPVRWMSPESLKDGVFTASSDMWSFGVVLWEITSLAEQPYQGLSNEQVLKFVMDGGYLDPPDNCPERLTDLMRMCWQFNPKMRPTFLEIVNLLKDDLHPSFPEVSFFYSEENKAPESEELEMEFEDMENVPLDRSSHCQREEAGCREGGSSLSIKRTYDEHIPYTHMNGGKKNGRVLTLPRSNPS
Experimental: Receptor binding assays using rat liver plasma membranes were performed as described by Kitagawa et al., Biochemistry (1984), vol. 23, pp. 1405-1413. Rat liver plasma membranes were prepared as described by Horvat et al., Biochim. Biophys. Acta (1975), vol. 382, pp. 609-620.
Following incubation for 45 min at 24° C., the mixtures were diluted with 2.0 ml of ice cold 0.1M sodium phosphate, pH 7.4, containing 0.1% fraction V bovine serum albumin and immediately filtered through cellulose-acetate filters. The filters were washed twice with the ice cold buffer, dried, and then radioactivity was counted in a scintillation counter using Filtron-X®. Nonspecific binding, defined as radioactivity remaining on the filters when the incubations contained 1×10^-5 M unlabeled insulin, was subtracted from all values.
The data points shown in FIG. 3 represent the mean of triplicate determinations in a representative assay which was performed four times. The maximum binding in these assays amounted to 8.2% of the input radioactivity.

Chain of insulin receptors (P15127 27-759 limits assumed): as the sequence (P15127 27-759 limits assumed) above
Chain of insulin receptors (P15127 764-1383 partner limits assumed): as the sequence (P15127 764-1383 partner limits assumed) above
Experimental for rat adipocytes: The assays measured the ability of the insulin analogue as compared to bovine insulin to convert, [3-^3 H] glucose into lipids.
Adipocytes were prepared by incubating epididymal and perirenal fat pads obtained from male rats weighing 200-300 g with 1.0 mg/ml collagenase for 60 min at 37° C., followed by filtration through gauze and then through fine-mesh silk. Cells were washed twice by flotation in a clinical centrifuge before suspension for use. The incubation medium was Krebs-Ringer bicarbonate containing half the recommended calcium, 0.5 mM glucose, and 3% fatty acid free bovine serum albumin, with 95% O2 -5% CO2 as the gas phase. […] Cells were preincubated for 45 min at 37° C. before the addition of [3-^3 H] glucose. Incubation was continued for 60 min and stopped by the addition of 0.2 ml of 5N H2 SO4 and 0.2 ml of corn oil to aid in the extraction of lipids. Samples were extracted with 10 ml of Soluscint-0® for 30 min at room temperature before counting the radioactivity in a scintillation counter. […] Zero and 100% stimulation of lipogenesis were defined as radioactivity observed in the absence and presence, respectively, of 9.1×10^-10 M insulin (5.5 ng/ml).
Stimulation, expressed as percent of maximum, was plotted as a function of the agonist concentration. […]

In vitro activity relative to natural insulin (in words) (insulin receptors): several fold more active
Shape of dose response curves in receptor binding ([2]; compared with bovine insulin, FIG. 3): essentially parallel
Binding to the insulin receptor relative to natural insulins ([2]; more tightly than natural insulins): about five
Relative potency: concentration ratio required to inhibit 50% of specific 125I-insulin binding ([2]; relative to bovine insulin, rat liver plasma membranes, assay performed four times): about 534±146%
Substance: [10-Aspartic acid-B] human insulin
Potency in radioimmunoassay (ratio of slopes of Co/Ci plots) [1]: approximately equal potency
Agonist character / maximum stimulation of lipogenesis (rat adipocytes; compared with natural bovine insulin, FIG. 4): full agonist
Relative potency: concentration ratio required to produce 50% of maximum stimulation of lipogenesis (rat adipocytes; relative to bovine insulin, isolated rat adipocytes, assays performed four times): 435±144%
